Assay results published in patent US6541519B2, “Methods and compositions for treating lipoxygenase-mediated disease states” (Coastside Bio Resources, priority 2000, dated 2003).
Converted amounts (≈) assume the structure as drawn.

Key:
[1] = test system: caspase 3 in PC3 cells; assay: Caspase 3 activation and PARP cleavage; format: cell-based, human; settings: 24.2 μg/ml, 24 and 48 hours
Procedure: Caspases are a family of aspartate-specific cysteine proteases that are required for apoptosis. The most familiar substrate of caspase is PARP, which is involved with regulation of chromatin structure during differentiation and DNA repair. The native PARP protein (Mr, 116,000) is cleaved by caspase 3 or caspase 7 to yield lower molecular weight fragments. To confirm that the induction of apoptosis by 12-MTA involves activation of caspases, we treated PC3 cells with 24.2 μg/ml of 12-MTA and measured PARP cleavage and caspase 3 activation at 24 and 48 hours.

[2] = test system: 12-lipoxygenase; assay: Inhibition of 12-HETE production in RBL-1 cells (LC/MS/MS); format: cell-based, rat; settings: 100 μg/mL
Procedure: (§1) 12-MTA in rat leukemia (RBL-1) cells were examined. Cells were treated with 12-MTA (5 to 100 μg/ml) for 5 minutes at 37° C. followed by addition of A23187 (1 mM) and arachidonic acid (125 μM). Then the eicosanoids were extracted with hexane:ethyl acetate and analyzed by Multiple Reaction Monitoring in a tandem mass spectrometer (LC/MS/MS). Among seven eicosanoid metabolites, including PGE2, LTB4, 5-, 8-, 11-, 12-, and 15-HETEs, reduced production of 5-HETE and LTB4 in 12-MTA treated cells was observed. […] The inhibitory activity of 12-MTA on production of 5-HETE and LTB4 was concentration-dependent. This study further confirmed that 12-MTA is a 5-lipoxygenase inhibitor. 12-MTA, at 100 μg/mL, inhibited production of 12-HETE by 25% […].

[3] = test system: PC3 cells; assay: MTT cytotoxicity assay, PC3; format: cell-based; settings: Homo sapiens, PC-3
Procedure: (§2) The relative cytotoxic activity of 12-MTA against human tumor cells was measured by means of a MTT assay. Human cell lines, including H1299, PC3, K562, A549, DU145, and HL60 were used.

[4] = target: T1, 5-lipoxygenase (Homo sapiens, UniProt P09917); assay: Activity based fractionation, 5-HETE inhibition (UV 235 nm); format: biochemical; settings: preparative TLC spot at 1:100 dilution
T1 sequence (P09917 1-674): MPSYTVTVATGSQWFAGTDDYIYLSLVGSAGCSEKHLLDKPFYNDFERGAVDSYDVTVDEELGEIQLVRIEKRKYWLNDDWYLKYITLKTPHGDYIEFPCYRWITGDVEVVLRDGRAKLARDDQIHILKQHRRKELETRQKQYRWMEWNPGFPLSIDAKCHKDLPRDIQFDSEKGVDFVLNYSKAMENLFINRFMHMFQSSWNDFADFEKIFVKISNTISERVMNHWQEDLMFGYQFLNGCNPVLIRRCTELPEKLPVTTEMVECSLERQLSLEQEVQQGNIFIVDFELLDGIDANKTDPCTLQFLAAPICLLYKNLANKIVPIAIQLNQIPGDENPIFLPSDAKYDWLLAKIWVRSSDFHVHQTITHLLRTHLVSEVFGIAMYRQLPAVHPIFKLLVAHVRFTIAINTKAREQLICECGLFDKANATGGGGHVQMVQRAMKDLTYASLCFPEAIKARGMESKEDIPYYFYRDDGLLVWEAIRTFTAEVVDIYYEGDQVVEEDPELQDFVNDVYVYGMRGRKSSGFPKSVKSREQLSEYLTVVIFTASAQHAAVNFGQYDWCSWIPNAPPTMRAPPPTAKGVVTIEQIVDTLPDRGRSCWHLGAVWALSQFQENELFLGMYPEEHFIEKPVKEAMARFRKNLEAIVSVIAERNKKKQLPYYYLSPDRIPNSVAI
Excerpt: The method of isolation was by ‘activity based fractionation’ using 5- and 12-lipoxygenase inhibition as the guiding assay. Using chromatography, preparative HPLC and preparative TLC of the sea cucumber oil, and checking 5-HETE with detection with UV at 235 nm, one particular spot on the TLC inhibited 5-HETE by approximately 94% at a 1:100 dilution. (FIGS. 3 and 4) The effect of 12-MTA on 5-HETE inhibition was also concentration dependent. The identity of the particular inhibitory ‘spot’ from preparative TLC was later identified by GC/MS, MS and NMR analysis and was confirmed to be 12-methyltetradecanoic acid (12-MTA).

[5] = test system: PC3 human prostate cancer cells; assay: Morphological changes by scanning electron microscopy; format: cell-based; settings: 24.2 μg/ml in 0.1% DMSO, harvested 30', 1, 2, 4, 24 hours
Procedure: PC3 cells (5×10^5) were plated in 35 mm dishes. After 24 hours, cells were treated with 24.2 μg/ml of 12-MTA in 0.1% DMSO. The cells were harvested at 30′, 1, 2, 4 and 24 hours. Harvested cells were fixed with 2% paraformaldehyde plus 3% glutformaldehyde in 0.1% sodium cacodylate buffer, pH 7.3. Morphological changes were measured by scanning electron microscopy (SEM).

[6] = test system: DU145 cells; assay: MTT cytotoxicity assay, DU145; format: cell-based; settings: Homo sapiens, DU-145
Procedure: as §2

[7] = test system: A549 cells; assay: MTT cytotoxicity assay, A549; format: cell-based; settings: Homo sapiens
Procedure: as §2

[8] = test system: HL60 cells; assay: MTT cytotoxicity assay, HL60; format: cell-based; settings: Homo sapiens, HL-60
Procedure: as §2

[9] = test system: K562 cells; assay: MTT cytotoxicity assay, K562; format: cell-based; settings: Homo sapiens
Procedure: as §2

[10] = test system: PC3 cells; assay: DNA fragmentation analysis (propidium iodide staining and FACS); format: cell-based, human; settings: 18.15 μg/ml
Procedure: To measure apoptosis directly, PC3 cells were treated with various concentrations of 12-MTA. Cell death by apoptosis was quantified by propidium iodide staining and FACS analysis. This technique measures cells with fragmented DNA, which appear as a population with hypodiploid DNA content (FIG. 2). 12-MTA induced concentration-dependent DNA fragmentation in PC3 cells.

[11] = test system: PPAR-γ; assay: PPAR-γ expression by immunoblot, PC3; format: cell-based, human; settings: PC3 cells, 24.2 μg/ml, serum-free media, 24 hours; preliminary data
Procedure: (§3) Peroxisome proliferator-activated receptors (PPAR) represent a family of steroid hormone receptors in a superfamily mainly involved with lipid metabolism. Recently, high levels of PPAR-γ were reportedly expressed in prostate cancer tumor and activation of PPAR-γ was associated with nonapoptotic cell death induced by some PPAR-γ ligands. […] We have examined the effects of 12-MTA on activation of PPAR-γ in DU145 and PC3 cells. Cells were treated with 24.2 μg/ml of 12-MTA in serum-free media. After 24 hours, cells were harvested and expression of PPAR-γ was detected by immunoblot with or without blocking peptide.

[12] = test system: PPAR-γ; assay: PPAR-γ expression by immunoblot, DU145; format: cell-based, human; settings: DU145 cells, 24.2 μg/ml, serum-free media, 24 hours; preliminary data
Procedure: as §3

[13] = test system: H1299 cells; assay: MTT cytotoxicity assay, H1299; format: cell-based; settings: Homo sapiens, NCI-H1299
Procedure: as §2

[14] = target: T2, 5-lipoxygenase (Rattus norvegicus, UniProt P12527); assay: Inhibition of 5-lipoxygenase activity (5-HETE and LTB4 production, LC/MS/MS); format: cell-based; settings: RBL-1 cells, 5 minutes at 37° C., then A23187 and arachidonic acid
T2 construct: endogenous in cells; host or cells: RBL-1 (rat leukemia) cells
T2 sequence (P12527 1-673): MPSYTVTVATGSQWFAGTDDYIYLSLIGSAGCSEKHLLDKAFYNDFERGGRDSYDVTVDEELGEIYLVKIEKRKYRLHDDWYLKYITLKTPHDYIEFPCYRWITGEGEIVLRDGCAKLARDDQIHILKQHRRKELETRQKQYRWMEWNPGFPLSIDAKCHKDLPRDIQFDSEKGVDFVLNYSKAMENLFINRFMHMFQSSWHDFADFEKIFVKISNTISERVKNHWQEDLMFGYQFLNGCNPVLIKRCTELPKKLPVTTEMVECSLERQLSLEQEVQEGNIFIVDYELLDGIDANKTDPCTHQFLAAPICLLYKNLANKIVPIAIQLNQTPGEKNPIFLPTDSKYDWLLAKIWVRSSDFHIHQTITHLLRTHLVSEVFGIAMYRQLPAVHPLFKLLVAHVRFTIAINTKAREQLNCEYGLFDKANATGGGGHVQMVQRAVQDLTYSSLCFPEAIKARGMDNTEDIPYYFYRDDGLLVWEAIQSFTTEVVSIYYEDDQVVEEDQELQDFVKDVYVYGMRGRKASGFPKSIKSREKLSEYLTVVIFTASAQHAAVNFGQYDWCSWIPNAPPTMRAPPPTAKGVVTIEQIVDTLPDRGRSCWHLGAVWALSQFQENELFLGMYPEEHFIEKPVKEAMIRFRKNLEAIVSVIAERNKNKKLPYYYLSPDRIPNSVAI
Procedure: as §1

inhibition of 5-HETE [4]: approximately 94%
IC50 [14]: ~103 µM
Compound: CCC(C)CCCCCCCCCCC(=O)O (stereo not drawn) [12-MTA, 12-methyltetradecanoic acid]
PARP cleavage [1]: prominent PARP cleavage
caspase 3 activation [1]: can activate caspase 3
inhibition of production of 12-HETE [2]: 25%
IC50 [3]: 30.1 µg/mL (≈ 124 µM)
Morphological (apoptotic) changes by SEM [5]: cells exhibited apoptotic changes after 1-hour of exposure
IC50 [6]: 30.2 µg/mL (≈ 125 µM)
IC50 [7]: 21.8 µg/mL (≈ 89.9 µM)
IC50 [8]: 20.6 µg/mL (≈ 84.9 µM)
IC50 [9]: 33.1 µg/mL (≈ 137 µM)
percent of apoptotic cells (fragmented DNA) [10]: 75%
expression of PPAR-γ [11]: only slightly increased
expression of PPAR-γ [12]: only slightly increased
IC50 [13]: 18.1 µg/mL (≈ 74.9 µM)
